Data taken from patent publication US12144792B2, “Therapeutic agents for neurodegenerative diseases” (priority 2016, dated 2024).

Legend:
[1] = tested on: patients with amyotrophic lateral sclerosis (ALS); assay: Case studies, medical examination; assay type: in vivo, human
Description: The results were documented by video.

[2] = tested on: patients with progressive supranuclear palsy; assay: Case studies, clinical examination; assay type: in vivo, human; details: 3 then 5 g per day; for gait and hypokinetic rigid syndrome: 17 days
Protocol: After 27 days of acetyl-leucine treatment, medication was stopped and the patient was re-examined 60 days later. […] Gait analysis was performed before treatment commenced. After 17 days of treatment, medication was stopped and the patient was re-examined 4 days later. […] Gait analysis was performed before treatment commenced. After three weeks of treatment, medication was stopped and the patient was re-examined.

[3] = tested on: Mucolipidosis Type IIIA (MLIIIA) patient fibroblasts; assay: Lysosomal volume via LysoTracker; assay type: cell-based, human; details: 1 mM, 6 days, vs untreated
[4] = tested on: patient with Spinocerebellar Ataxia (SCA) 1; assay: Case study, clinical examination; assay type: in vivo, human; details: Ex. 16, SCA 1
Description: Three months later the medication was stopped.

[5] = tested on: patients with ataxia telangiectasia; assay: Case studies, SARA, SCAFI, visual analog scale and reports; assay type: in vivo, human
Description: For example, to evaluate overall neurological status, mDRS, a four-domain scale (ambulation, manipulation, language and swallowing), may be applied. Cerebellar function may be evaluated using SARA, an eight-item clinical rating scale (gait, stance, sitting, speech, fine motor function and taxis; range 0-40, where 0 is the best neurological status and 40 the worst), and SCAFI, comprising the 8-m-Walking-Time (8MW; performed by having patients walking twice as quickly as possible from one line to another excluding turning), 9-Hole-Peg-Test (9HPT) and the number of “PATA” repetitions over 10 s. Subjective impairment and quality of life may be evaluated using the EQ-5D-5L questionnaire and VAS. To assess ocular motor function, 3-dimensional videooculography (EyeSeeCam) may be used to measure the peak velocity of saccades, gain of smooth pursuit, peak slow phase velocity of gaze-evoked nystagmus (gaze-holding function), peak slow phase velocity of optokinetic nystagmus, and gain of horizontal vestibulo-ocular reflex. To evaluate the cognitive state, WAIS-R or WISC-W, and MoCA, assessing different cognitive domains, including attention and concentration, executive functions, memory, language, visuoconstructional skills, conceptual thinking, calculations, and orientation with a maximum of 30 points and a cut-off score of 26, may be used. The skilled person will know how to perform these and other such tests.
After one month of treatment, the patient was re-evaluated. […] Examination indicated a Scale for Assessment and Rating of Ataxia (SARA) score of 15.5/40. Results from the patient's Spinocerebellar Ataxia Functional Index (SCAFI) analysis were: • Mean 8-meters Walking Test (8MW): 18.5 s • MW 9-Hole Pegboard Test Dominant (9HPTD) (right): 77.9 s • MW 9-Hole Pegboard Test Non-Dominant (9HPTND): 101.3 s • MW PATA Word Test: 13 • Visual analog scale (as evaluated by the patient): 85
After one month of treatment, the patient was re-evaluated. […] Examination indicated a Scale for Assessment and Rating of Ataxia (SARA) score of 23.5/40.
After slightly over 7 months of treatment, the patient was re-evaluated. […] Examination indicated a Scale for Assessment and Rating of Ataxia (SARA) score of 21.5/40.
After slightly over 1 month of treatment, the patient was re-evaluated. […] The patient also reported that drinking was easier and no longer needed a straw. […] Examination indicated a Scale for Assessment and Rating of Ataxia (SARA) score of 18.5/40.
After about 1 month of treatment, the patient was re-evaluated. […] On medication, they were able to walk with only holding the caregiver's hand.
The patient was evaluated after one month and six months of treatment, respectively. […] The patient, however, was suffering from anxiety, which would be expected to negatively influence the response.

[6] = tested on: patient with corticobasal syndrome; assay: Case study, clinical examination; assay type: in vivo, human
Protocol: Gait analysis was performed before treatment commenced. After 20 days of acetyl-leucine treatment, the patient was re-examined. […] After 8 weeks of acetyl-leucine treatment, medication was stopped and the patient was re-examined 6 days later.

[7] = Ex. 7 Patient 1, ALS, after a further 20 days
[8] = Ex. 15 Patient 2, after one month
[9] = Ex. 15 Patient 3, after slightly over 7 months
[10] = Ex. 15 Patient 4, after slightly over 1 month
[11] = Ex. 15 Patient 5, after almost 7 months

CC(=O)NC(CC(C)C)C(=O)O (racemic) [acetyl-DL-leucine]
speech ([1]; Ex. 7 Patient 1, ALS, 3 then 5 gram per day, after 15 days): significant improvement of speech | speech after stopping treatment ([1]; Ex. 7 Patient 1, ALS, about 7 days plus 1-2 additional weeks off treatment): deterioration of speech | paresis of the right foot-dorsiflexors and foot drop [1, 7]: improved dramatically and were clinically hardly detectable | sleep [1, 7]: improvement in sleep | speech [1, 7]: further improvement of speech | symptomatology after resuming treatment ([1]; Ex. 7 Patient 1, ALS, resumed after second discontinuation): improved symptomatology, in particular speech | symptoms on re-examination ([1]; Ex. 7 Patient 2, ALS, 3 then 5 g per day, after approximately 2 months): progredient deterioration of the motor function of the left hand, but a discrete improvement of walking | symptomatology ([1]; Ex. 7 Patient 3, ALS, 3 then 5 g per day, after one month): did not report improvement of symptomatology | symptomatology ([1]; Ex. 7 Patient 4, ALS, 3 then 5 g per day, after about one month): subjective improvement of dysphagia and less hypersalivation | symptomatology after suspension ([1]; Ex. 7 Patient 4, ALS, 10 days after therapy was suspended): worsening of symptomatology | dizziness and gait ([2]; Ex. 11 Patient 1, PSP, 27 days): significant reduction of dizziness and slight improvement of gait | gait and hypokinetic rigid syndrome ([2]; Ex. 11 Patient 2, PSP): no significant improvement of gait or hypokinetic rigid syndrome | gait and hypokinetic rigid syndrome ([2]; Ex. 11 Patient 3, PSP): no significant improvement of gait or hypokinetic rigid syndrome | gait and falls ([2]; Ex. 11 Patient 4, PSP, after three weeks): gait with increased subjective security and with reduced frequency of falls | LysoTracker fluorescence (lysosomal volume) [3]: trend in reducing LysoTracker fluorescence | symptoms ([4]; 5 g/day, three weeks on medication): all symptoms significantly improved | side-effects ([4]; over two years on the same dosage): without any side-effects | signs and symptoms after stopping ([4]; two weeks after the medication was stopped): the intensity of the signs and symptoms were the same as before therapy | caregivers' report ([5]; Ex. 15 Patient 1, after one month): improvement of speech and gait | MW PATA Word Test ([5]; Ex. 15 Patient 1, after one month, before 12.5): 13 | Mean 8-meters Walking Test (8MW) [5, 8]: not able to perform without support | caregivers' report [5, 8]: improvement of fine motor function, hand tremor, and speech | MW PATA Word Test ([5]; Ex. 15 Patient 2, after one month, before 13.5): 14 | MW 9-Hole Pegboard Test Non-Dominant (9HPTND) ([5]; Ex. 15 Patient 2, after one month, before 299.2 s): 300 s | MW 9-Hole Pegboard Test Dominant (9HPTD) (right) ([5]; Ex. 15 Patient 2, after one month, before 300 s): 300 s | Mean 8-meters Walking Test (8MW) [5, 9]: not able to perform | caregivers' and patient's report [5, 9]: general improvement of well-being | MW PATA Word Test ([5]; Ex. 15 Patient 3, after slightly over 7 months, before 14): 10 | Mean 8-meters Walking Test (8MW) [5, 10]: not able to perform | patient's and parent's report [5, 10]: improvement in handwriting | mother's report ([5]; Ex. 15 Patient 5, ataxia telangiectasia, 5 g/day, after about 1 month): significant improvement of stability of the gait | Mean 8-meters Walking Test (8MW) ([5]; Ex. 15 Patient 5, after about 1 month): not able to walk without support | MW PATA Word Test ([5]; Ex. 15 Patient 5, after about 1 month, before 6): 7.5 | MW PATA Word Test [5, 11]: 11 | mother's report [5, 11]: significantly more stable gait | clinical re-evaluation ([5]; Ex. 15 Patient 5, after slightly over a year): improved social interaction, activity, and agility | symptoms ([5]; Ex. 15 Patient 6, ataxia telangiectasia, 1.5 then 3 g/day, after one month): increased fine motor skills with reduced hand tremor | symptoms ([5]; Ex. 15 Patient 6, after six months): stable general conditions, stable gait and stance, and improved handwriting | dizziness and falls ([6]; Ex. 10, corticobasal syndrome, 3 then 5 g per day, after 20 days): improvement of dizziness symptoms and significant reduction in the frequency of falls | symptoms after suspension ([6]; Ex. 10, medication stopped after 8 weeks): increase of dizziness symptoms two days after suspension of treatment
